Measured values reported in publication PMC5779714, “Metallochaperone UreG serves as a new target for design of urease inhibitor: A novel strategy for development of antimicrobials” (PLoS Biology, 2018).

Target: UreG (Helicobacter pylori, UniProt Q09066)
Test: Fluorescence-quenching titration of UreG (Kd)
Assay type: binding, H. pylori
Experimental: Using the relation between the emission intensity at 310 nm and molecule-UreG–bound species, as well as one site-binding model, the Kd values were calculated by a logistic regression model referring to a previous report. […] All fluorescence readings were corrected for the dilution effect.

UreG, sequence (Q09066 whole entry): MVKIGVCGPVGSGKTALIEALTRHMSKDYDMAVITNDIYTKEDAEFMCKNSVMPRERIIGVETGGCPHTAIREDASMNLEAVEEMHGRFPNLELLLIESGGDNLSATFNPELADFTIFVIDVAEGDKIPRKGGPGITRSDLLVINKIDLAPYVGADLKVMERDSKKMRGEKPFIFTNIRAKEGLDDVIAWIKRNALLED

Nc1nc2c(ncn2[C@@H]2O[C@H](COP(=O)(O)OP(=O)(O)OP(=O)(O)O)[C@@H](O)[C@H]2O)c(=O)[nH]1 [GTP, guanosine-5'-triphosphate, reference compound]
Kd: ~65 µM
fluorescence intensity (a.u.) (log(ligand[μM]) 0): 3320 a.u.
fluorescence intensity (a.u.) (log(ligand[μM]) 0.30103): 3210 a.u.
fluorescence intensity (a.u.) (log(ligand[μM]) 0.60206): 2994.67 a.u.
fluorescence intensity (a.u.) (log(ligand[μM]) 0.90309): 2943.33 a.u.
fluorescence intensity (a.u.) (log(ligand[μM]) 1.20412): 2860.67 a.u.
fluorescence intensity (a.u.) (log(ligand[μM]) 1.50515): 2655 a.u.
fluorescence intensity (a.u.) (log(ligand[μM]) 1.80618): 2320.33 a.u.
fluorescence intensity (a.u.) (log(ligand[μM]) 2.10721): 1866.33 a.u.
fluorescence intensity (a.u.) (log(ligand[μM]) -1.30103): 3394.33 a.u.
